# Earlier results, collected in patent US20100273829A1, “Methods for Treating Disorders Associated with Hyperlipidemia in a Mammal” (priority 2005, published 2010).
# “Also recorded” adds a separate entry of the source. Where two headings read alike, the source gives them in different places.
# Columns and labels:
# [1] = ezetimibe 10 mg/day added to maximal statin regimen (80 mg/day), hoFH patients
compound,measurement,setting,value
"O=C(NC1CCN(CCCCC2(C(=O)NCC(F)(F)F)c3ccccc3-c3ccccc32)CC1)c1ccccc1-c1ccc(C(F)(F)F)cc1 [BMS-201038, N-(2,2,2-Trifluorethyl)-9-[4-[4-[[[4′-(trifluoromethyl)[1,1′biphenyl]-2-Yl]carbonyl]amino]-1-piperidinyl]butyl]9H-fluorene-9-carboxamide]",adverse events,"patients, 25 mg/day BMS-201038 monotherapy","gastrointestinal perturbations, abnormalities in liver function, and hepatic steatosis; also recorded: gastrointestinal disorders, abnormalities in liver function and/or hepatic steatosis"
O=C1[C@H](CC[C@H](O)c2ccc(F)cc2)[C@@H](c2ccc(O)cc2)N1c1ccc(F)cc1 [ezetimibe],total reduction of LDL-C levels,[1],27%
"Cc1cc(C)c2c3ccccc3n(Cc3ccc([C@@H](C(=O)N[C@H](CO)c4ccccc4)C4CCCC4)cc3)c2n1 [implitapide, (2S)-2-cyclopentyl-2-[4-[(2,4-dimethyl-9H-pyrido[2,3-b]indol-9-yl)methyl]phenyl]-N-[(1S)-2-hydroxy-1-phenylethyl]ethanamide]",therapeutic efficacy,"clinical studies, implitapide 80 mg/day or greater",therapeutically effective
same,adverse events,"clinical studies, implitapide 80 mg/day or greater (80 mg/day, 160 mg/day)","gastrointestinal disturbances, abnormalities in liver function, and hepatic steatosis; also recorded: gastrointestinal disorders, abnormalities in liver function and/or hepatic steatosis"
